Legend:
[1] = cited from earlier work
SC-beta islets = conditions: individual components and mixtures at same total concentration (44%), FIG. 3C
Protocol: The full-strength CPA used was 22 wt % EG+22 wt % DMSO prepared in RPMI medium. To load the CPA, islets were first incubated in 20% CPA (i.e., 4.4 wt % EG+4.4 wt % DMSO) for 10 min at 21° C., followed by 50% CPA for 10 min at 4° C. and in 100% CPA for 10 min at 4° C. The islets suspension was then transferred to the cryomesh placed on a wicking material (i.e., paper towel). The CPA cocktail was wicked away through the nylon mesh and islets remained on the cryomesh. Clumping of islets was avoided. The cryomesh was quickly plunged into liquid nitrogen and stored in a liquid nitrogen tank. […]
Quantitative viability was measured on dissociated islet cells. […] After 15 seconds of incubation, 10 μL of the suspension was pipetted onto the Countess Cell Counting Chamber Slides (Thermo Fischer Scientific; Cat #C10228), and viability was quantified using a Countess II FL cell counter (Invitrogen by Thermo Fisher Scientific; Cat #AMQAF1000).
To optimize the CPA formulation, three overall CPA concentrations (33%, 44%, and 54%) were tested consisting of PG, EG, DMSO, or mixtures thereof. Qualitative and quantitative live/dead staining was used to measure SC-beta islet viability for each CPA after loading and unloading (FIG. 2F) and after VR. Qualitative measurements were determined by confocal imaging of intact islets after staining with acridine orange (AO) and propidium iodide (PI). […]

**Q.** For `C[S+](C)[O-]` [DMSO, dimethyl sulfoxide], which “Transport: share achieving normoglycemia” value ([1]; canine islets to mice) is on record?
**A.** 62%

**Q.** And the “Transport: time to normoglycemia” value ([1]; literature studies)?
**A.** in 4 days

**Q.** For `OCCO` [EG, ethylene glycol], which “islet toxicity after CPA loading and unloading” value (SC-beta islets) is on record?
**A.** least islet toxicity of the three individual components
